These results are taken from ChEMBL document CHEMBL1926664, “Synthesis and antiproliferative evaluation of 6-aryl-11-iminoindeno[1,2-c]quinoline derivatives” (2011).

Molecules are shown by their SMILES.

One assay deals with MCF7. Nature of the assay: Growth inhibition of human MCF7 cells after 72 hrs by XTT assay. Particulars: MCF7, 72 h. Type of assay: functional.
Another assay deals with MDA-MB-231. In words: Growth inhibition of human MDA-MB-231 cells after 72 hrs by XTT assay. Format: functional. The conditions noted are these: MDA-MB-231, 72 h.
The nature of assay [1]: Growth inhibition of human H1299 cells after 72 hrs by XTT assay. Type of assay: functional. Particulars: NCI-H1299, 72 h.
The subject of a further assay is HepG2. Nature of the assay: Growth inhibition of human HepG2 cells after 72 hrs by XTT assay. Type of assay: functional. Particulars: HepG2, 72 h.
Assay [2] can be described thus: Growth inhibition of human Hep3B cells after 72 hrs by XTT assay. Format: functional, Hep 3B2.
For the next assay, the system named is A549. In words: Growth inhibition of human A549 cells after 72 hrs by XTT assay. Format: functional. The conditions noted are these: A549, 72 h.

Turning to `Oc1ccc(-c2nc3ccccc3c3c2-c2ccc(OCCN4CCCC4)cc2/C3=N\OCCN2CCCC2)cc1`, the GI50 with MCF7 was determined as 6.42 µM; with MDA-MB-231 it was 0.68 µM; in assay [1], 6.51 µM; in the assay with HepG2, 4.09 µM; in assay [2], 0.78 µM; in the assay on A549 it was 0.79 µM.
For `CN(C)CCCO/N=C1\c2cc(O)ccc2-c2c(-c3ccc(O)cc3)nc3ccccc3c21`, the GI50 in the assay on MCF7 was found to be 6.06 µM; in the assay with MDA-MB-231, 0.93 µM; in assay [1], 6.94 µM; in the assay on HepG2 it was 1.55 µM; in assay [2], 0.67 µM; in the assay on A549 it was 0.5 µM.
Take `COc1ccc(-c2nc3ccc(OC)cc3c3c2-c2ccc(OC)cc2/C3=N\OCCN2CCCC2)cc1`: the GI50 with MCF7 turned out to be 6.25 µM; in the assay with MDA-MB-231, 5.15 µM; in assay [1], 6.54 µM; in the assay with HepG2 it was 6.03 µM; in assay [2] it was 6.17 µM; in the assay with A549, 6.42 µM.
As to `O/N=C1\c2cc(O)ccc2-c2c(-c3ccc(O)cc3)nc3ccc(F)cc3c21`, the GI50 in the assay with MCF7 was 8.77 µM; in the assay on MDA-MB-231, 8.41 µM; in assay [1], above 10 µM; with HepG2, above 10 µM; in assay [2] it was 7.6 µM; with A549, above 10 µM.
With `Oc1ccc2c(c1)/C(=N\OCCN1CCCC1)c1c-2c(-c2ccc(OCCN3CCCC3)cc2)nc2ccccc12`, the GI50 in the assay with MCF7 is 5.92 µM; in the assay on MDA-MB-231 it was 0.51 µM; in assay [1] it was 0.57 µM; in the assay on HepG2 it was 4.11 µM; in assay [2] it was 0.92 µM; with A549 it was 0.54 µM.
Turning to `COc1ccc(-c2nc3ccc(F)cc3c3c2-c2ccc(OC)cc2/C3=N\O)cc1`, the GI50 (in the assay with MCF7; in the assay with MDA-MB-231; in assay [1]; with HepG2; in assay [2]; in the assay with A549) was above 10 µM throughout.
Take `COc1ccc(-c2nc3ccc(F)cc3c3c2-c2ccc(OC)cc2/C3=N\OCCN2CCCC2)cc1`: the GI50 with MCF7 worked out at 6.36 µM; with MDA-MB-231 it was 5.99 µM; in assay [1], 3.15 µM; in the assay with HepG2, 9.46 µM; in assay [2] it was 3.11 µM; in the assay with A549, 9.24 µM.
In the case of `COc1ccc(-c2nc3ccccc3c3c2-c2ccc(OC)cc2/C3=N\OCCN2CCCC2)cc1`, the GI50 stood at 6.71 µM in the assay on MCF7; 5.33 µM in the assay with MDA-MB-231; 6.31 µM in assay [1]; 5.48 µM in the assay with HepG2; 4.68 µM in assay [2]; 5.27 µM with A549.
Turning to `COc1ccc(-c2nc3ccc(OC)cc3c3c2-c2ccc(OC)cc2/C3=N\O)cc1`, the 50% growth inhibitory concentration (GI50) (in the assay on MCF7; with MDA-MB-231; in assay [1]; in the assay with HepG2; in assay [2]; in the assay on A549) was above 10 µM in each case.
As to `Oc1ccc2c(c1)/C(=N\OCCN1CCCC1)c1c-2c(-c2ccc(OCCN3CCCC3)cc2)nc2ccc(F)cc12`, the GI50 in the assay on MCF7 is 6.04 µM; in the assay with MDA-MB-231, 0.48 µM; in assay [1], 0.7 µM; in the assay with HepG2 it was 1.08 µM; in assay [2], 0.47 µM; in the assay on A549, 0.31 µM.
For the compound `COc1ccc(-c2nc3ccccc3c3c2-c2ccc(OC)cc2/C3=N\O)cc1`, the GI50 (with MCF7; in the assay with MDA-MB-231; in assay [1]; in the assay on HepG2; in assay [2]; in the assay with A549) was above 10 µM in each case.
Turning to `CN(C)CCCO/N=C1\c2cc(OCCCN(C)C)ccc2-c2c(-c3ccc(O)cc3)nc3ccccc3c21`, the concentration for 50% growth inhibition (GI50) in the assay with MCF7 is above 10 µM; in the assay on MDA-MB-231 it was 3.07 µM; in assay [1], 5.3 µM; in the assay with HepG2 it was 4.96 µM; in assay [2], 5.41 µM; in the assay on A549, 2.1 µM.
For the compound `CCc1c2c(nc3ccc(OC(=O)N4CCC(N5CCCCC5)CC4)cc13)-c1cc3c(c(=O)n1C2)COC(=O)[C@]3(O)CC` [IRINOTECAN], the GI50 with MCF7 was above 10 µM; in the assay on MDA-MB-231, 9.17 µM; in assay [1], above 10 µM; in the assay on A549, above 10 µM.
In the case of `Oc1ccc(-c2nc3ccc(F)cc3c3c2-c2ccc(O)cc2/C3=N\OCCN2CCCC2)cc1`, the GI50 was found to be 6.26 µM in the assay on MCF7; 0.68 µM with MDA-MB-231; 6.48 µM in assay [1]; 5.04 µM in the assay with HepG2; 0.64 µM in assay [2]; 0.84 µM with A549.
With `O/N=C1\c2cc(O)ccc2-c2c(-c3ccc(O)cc3)nc3ccccc3c21`, the GI50 was above 10 µM in the assay on MCF7; 8.47 µM in the assay on MDA-MB-231; above 10 µM in assay [1]; above 10 µM with HepG2; above 10 µM in assay [2]; above 10 µM in the assay on A549.
With `CN(C)CCCO/N=C1\c2cc(O)ccc2-c2c(-c3ccc(O)cc3)nc3ccc(F)cc3c21`, the concentration for 50% growth inhibition (GI50) in the assay on MCF7 amounted to 6.28 µM; with MDA-MB-231, 4.74 µM; in assay [1], 6.3 µM; in the assay on HepG2, 6.24 µM; in assay [2] it was 0.69 µM; in the assay on A549, 6.46 µM.
For `CC[C@@]1(O)C(=O)OCc2c1cc1n(c2=O)Cc2cc3c(CN(C)C)c(O)ccc3nc2-1` [TOPOTECAN], the 50% growth inhibitory concentration (GI50) is above 10 µM with MCF7, 0.078 µM with MDA-MB-231, above 10 µM in assay [1] and 0.22 µM in assay [2].
As to `Oc1ccc(-c2nc3ccccc3c3c2-c2ccc(O)cc2/C3=N\OCCN2CCCC2)cc1`, the GI50 with MCF7 is 7.83 µM; in the assay with MDA-MB-231, 0.58 µM; in assay [1] it was 6.06 µM; with HepG2, 5.74 µM; in assay [2], 0.52 µM; in the assay with A549, 0.88 µM.
On to `COc1ccc(-c2nc3ccc(F)cc3c3c2-c2ccc(OC)cc2/C3=N\OCCCN(C)C)cc1`, for which the GI50 was 6.18 µM in the assay with MCF7; 0.7 µM with MDA-MB-231; 0.61 µM in assay [1]; 5.75 µM with HepG2; 0.66 µM in assay [2]; 0.91 µM in the assay with A549.
`COc1ccc(-c2nc3ccccc3c3c2-c2ccc(OC)cc2/C3=N\OCCN2CCCCC2)cc1`: the GI50 with MCF7 was above 10 µM; in the assay with MDA-MB-231, above 10 µM; in assay [1], above 10 µM; in the assay with HepG2, above 10 µM; in assay [2] it was 8.29 µM; in the assay on A549, above 10 µM.
Regarding `Oc1ccc(-c2nc3ccc(F)cc3c3c2-c2ccc(OCCN4CCCC4)cc2/C3=N\OCCN2CCCC2)cc1`, the 50% growth inhibitory concentration (GI50) with MCF7 is 6.2 µM; with MDA-MB-231, 0.33 µM; in assay [1] it was 7.09 µM; in the assay with HepG2, 5.71 µM; in assay [2], 0.23 µM; with A549, 0.53 µM.
As to `CN(C)CCCO/N=C1\c2cc(O)ccc2-c2c(-c3ccc(OCCCN(C)C)cc3)nc3ccccc3c21`, the GI50 with MCF7 came to 6.65 µM; in the assay with MDA-MB-231, 0.63 µM; in assay [1], 0.69 µM; with HepG2, 3.77 µM; in assay [2], 0.61 µM; with A549, 2.03 µM.
With `COc1ccc(-c2nc3ccc(OC)cc3c3c2-c2ccc(OC)cc2/C3=N\OCCCN(C)C)cc1`, the 50% growth inhibitory concentration (GI50) in the assay with MCF7 was found to be 6.3 µM; in the assay on MDA-MB-231, 6.13 µM; in assay [1] it was 5.7 µM; in the assay with HepG2, 5.95 µM; in assay [2], 6.49 µM; in the assay with A549, 6.62 µM.
`CN(C)CCCO/N=C1\c2cc(OCCCN(C)C)ccc2-c2c(-c3ccc(O)cc3)nc3ccc(F)cc3c21`: the GI50 came to 6.25 µM in the assay with MCF7; 0.67 µM with MDA-MB-231; 0.84 µM in assay [1]; 0.66 µM in the assay with HepG2; 0.56 µM in assay [2]; 0.42 µM in the assay on A549.
As for `COc1ccc(-c2nc3ccc(F)cc3c3c2-c2ccc(OC)cc2/C3=N\OCCN2CCCCC2)cc1`, the GI50 (in the assay on MCF7; in the assay with MDA-MB-231; in assay [1]; in the assay on HepG2; in assay [2]; with A549) was above 10 µM each time.
On to `COc1ccc(-c2nc3ccccc3c3c2-c2ccc(OC)cc2/C3=N\OCCCN(C)C)cc1`, for which the GI50 with MCF7 is 6.57 µM; in the assay with MDA-MB-231, 7.01 µM; in assay [1], 6.61 µM; in the assay with HepG2 it was 6.54 µM; in assay [2] it was 3.14 µM; in the assay on A549 it was 6.69 µM.
